Measured values taken from article PMC11578313, “Miniaturized Modular Click Chemistry‐enabled Rapid Discovery of Unique SARS‐CoV‐2 M^pro Inhibitors With Robust Potency and Drug‐like Profile” (Advanced Science, 2024).
Like-named read-outs stand apart in the source and are kept apart here.

What was measured:
[1] = in vitro; conditions: rhesus monkey
[2] = system: SARS‐CoV‐2 Omicron (hCoV‐19/Korea/KDCA447321/2021); assay: microbe, parasite or virus in culture; assay type: cell-based; conditions: Severe acute respiratory syndrome coronavirus 2, Calu-3, read-out: EC50 ± SD, SARS‐CoV‐2 Omicron
[3] = system: HCoV‐NL63; assay: microbe, parasite or virus in culture; assay type: cell-based; conditions: Human coronavirus NL63, LLC-MK2, read-out: EC50 ± SD, HCoV‐NL63
[4] = system: SARS‐CoV‐2 Delta (hCoV‐19/Korea/KDCA119861/2021); assay: microbe, parasite or virus in culture; assay type: cell-based; conditions: Severe acute respiratory syndrome coronavirus 2; Calu‐3; read-out: EC50 ± SD, SARS‐CoV‐2 Delta
[5] = system: HCoV‐OC43; assay: microbe, parasite or virus in culture; assay type: cell-based; conditions: Betacoronavirus 1, OC43, MRC5, read-out: EC50 ± SD, HCoV‐OC43
[6] = system: MERS‐CoV; assay: microbe, parasite or virus in culture; assay type: cell-based; conditions: Middle East respiratory syndrome-related coronavirus, Huh-7, read-out: EC50 ± SD, MERS‐CoV
[7] = system: MRC‐5 cells; conditions: human
[8] = system: SARS‐CoV‐2 Gamma (hCoV‐19/Korea/KDCA95637/2021); assay: microbe, parasite or virus in culture; assay type: cell-based; conditions: Severe acute respiratory syndrome coronavirus 2; Calu‐3; read-out: EC50 ± SD, SARS‐CoV‐2 Gamma
[9] = in vitro; conditions: human
[10] = system: HCoV‐229E; assay: microbe, parasite or virus in culture; assay type: cell-based; conditions: Human coronavirus 229E, MRC5, read-out: EC50 ± SD, HCoV‐229E
[11] = system: SARS‐CoV‐2 (hCoV‐19/Korea/KCDC06/2020, wild type); assay: microbe, parasite or virus in culture; assay type: cell-based
[12] = in vitro; conditions: African green monkey
[13] = in vivo; conditions: ICR, mouse, po, p.o. 10 mg kg^−1 with 20 mg kg^−1 ritonavir, ICR mice, n = 3
[14] = system: SARS‐CoV‐2; assay: microbe, parasite or virus in culture; assay type: cell-based; conditions: Severe acute respiratory syndrome coronavirus 2, Vero
[15] = in vitro; conditions: human; remark: listed apart in the source

Structure (SMILES): CC(C)(C)[C@H](NC(=O)C(F)(F)F)C(=O)N1C[C@H]2[C@@H]([C@H]1C(=O)N[C@H](C#N)C[C@@H]1CCNC1=O)C2(C)C [Nirmatrelvir, reference compound]
- CC50 [1]: > 100000 nM
- EC50 [2]: 3390 ± 245 nM
- EC50 [3]: > 100000 nM
- EC50 [4]: 3700 ± 598 nM
- EC50 [5]: < 46 nM
- EC50 [6]: 58 nM
- CC50 [7]: > 100000 nM
- EC50 [8]: 3430 ± 519 nM
- CC50 [9]: > 100000 nM
- EC50 [10]: 378 nM
- EC50 ([11]; Severe acute respiratory syndrome coronavirus 2, Calu-3, read-out: EC50, anti‐SARS‐CoV‐2 activity in Calu‐3 cells (Figure 3B)): 1950 nM
- EC50 ([11]; Severe acute respiratory syndrome coronavirus 2, Calu-3, read-out: EC50 ± SD, Calu‐3 cells, with P‐gp inhibitor): < 46 nM
- EC50 ([11]; Severe acute respiratory syndrome coronavirus 2, Calu-3, read-out: EC50 ± SD, Calu‐3 cells, without P‐gp inhibitor): 1000 ± 31 nM
- EC50 ([11]; Severe acute respiratory syndrome coronavirus 2, Calu-3, read-out: EC50 ± SD, SARS‐CoV‐2 Wild‐type): 2780 nM
- CC50 at 2 day [12]: > 100000 nM
- Cmax ([13]; 10 mg/kg, Cmax, p.o. in combination with ritonavir): 7450 ± 715 ng/mL
- MRT ([13]; 10 mg/kg, MRT0‐t, p.o. in combination with ritonavir): 1.55 ± 0.051 h
- MRT ([13]; 10 mg/kg, MRT0‐∞, p.o. in combination with ritonavir): 1.55 ± 0.055 h
- half-life ([13]; 10 mg/kg, t1/2, p.o. in combination with ritonavir): 0.692 ± 0.204 h
- AUC ([13]; AUC0‐t, p.o. in combination with ritonavir): 14600 ng·h/mL
- EC50 ([14]; read-out: EC50 ± SD, Vero cells, with P‐gp inhibitor): < 46 nM
- EC50 ([14]; read-out: EC50 ± SD, Vero cells, without P‐gp inhibitor): 2080 ± 214 nM
- CC50 [15]: > 100000 nM
- CC50 at 2 day ([15]; CC50 (Table 3), Calu‐3 cells): > 100000 nM
- CC50 at 2 day ([15]; CC50, Calu‐3 cells, MTT assay): > 100000 nM
